The test system of data set [1] is activated THP-1 cells, hPBMCs and whole blood. Description: IL-1β and IL-18 secretion from cells treated with LPS and ATP. The class given is cell-based, human. The procedure:
Compound 11, a potent NLRP3 inflammazome inhibitor blocks the IL-1β and IL-18 secretion from activated THP-1 cells, hPBMCs (Human peripheral blood mononuclear cell) and whole blood treated with LPS (lipopolysaccharide) and ATP (Adenosine triphosphate). For the whole blood assay, human peripheral venous blood was collected from healthy volunteers following the protocol approved by ethics committee. Whole blood was distributed in 96-well plates and primed with LPS (500 ng/mL) for 4 hours. Different concentrations of compound 11 was added in the presence of serum free media. NLRP3 inflammasome was induced with ATP (5 mM) for 1 hour. The supernatant was collected at the end of 1 hour and assayed for released IL-1β using the ELISA method. The inhibition in the cytokine levels was plotted and the half maximal inhibitory concentration was derived.

Data set [2] is described as follows: Phase 1 single oral dose pharmacokinetics in healthy subjects (plasma and urine, LC-MS/MS). Format: in vivo, human. To be noted: for half-life / Cmax / dose excreted: human; for half-life / Cmax: plasma; for half-life: read-out: mean elimination half-life (converted); for dose excreted: urine, read-out: mean cumulative percentage urinary recovery of unchanged compound.

The nature of data set [3]: Phase 1 single oral dose safety and tolerability in healthy subjects. Format: in vivo, human. The conditions noted are these: till 100 mg single dose.
The mark [4] stands for this setting: 25 mg single oral dose, cohort S1.
Setting [5] is: 50 mg single oral dose, cohort S2.
[6] abbreviates: 100 mg single oral dose, cohort S3.

Molecules are shown by their SMILES. Read-outs that look alike come from different tables or passages of the source.

Consider `CN1CCC[C@]1(C)/C=C/S(=O)(=O)NC(=O)Nc1c2c(cc3c1CCC3)CCC2` [Compound 11, (R,E)-2-(1,2-dimethylpyrrolidin-2-yl)-N-((1,2,3,5,6,7-hexahydro-s-indacen-4-yl)carbamoyl)ethene-1-sulfonamide], for which the “IL-1β and IL-18 secretion” value in data set [1] is given as “blocks”. Also, in data set [2] (setting [4]), the mean plasma clearance turned out to be 0.922 ± 0.01 L/h; the “mean volume of distribution” value was 8681.147 ± 929.14 mL; the highest level (Cmax) was 3390 ± 720 ng/mL; the half-life (as a rule, how long it takes for the measured level to halve) is 6.53 ± 0.67 h. The dose excreted in data set [2] (setting [4]) turned out to be 93.3%. In data set [2] (setting [5]), the mean plasma clearance worked out at 1.238 ± 0.22 L/h, the “mean volume of distribution” value is 10285.52 ± 1174.32 mL, the Cmax (commonly the highest concentration seen after dosing) is 5720 ± 520 ng/mL and the half-life was 5.82 ± 0.47 h. Further, the dose excreted in data set [2] (setting [5]) was 69.1%. Besides, in data set [2] (setting [6]), the mean plasma clearance was 1.099 ± 0.15 L/h, the “mean volume of distribution” value came to 9847.576 ± 825.72 mL, the half-life was 6.28 ± 0.65 h and the dose excreted is 76.6%. In data set [2] (oral, across all three doses (25, 50, 100 mg)), the half-life is 6 to 6.5 h. In data set [3], the safety and tolerability result was “safe and well tolerated”.

The values above are taken from US20250041267A1, “TREATEMENT FOR CRYOPYRIN ASSOCIATED PERIODIC SYNDROMES (CAPS)” (Zydus Lifesciences Limited, priority 2021, published 2025).
